How the values were obtained:
Test in all cases: cells
[1] = system: LB2241-RCC; format: functional, cell-based, Homo sapiens; conditions: Homo sapiens, LB2241-RCC;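 further: cell viability assay measuring how strongly the cultured human renal carcinoma line is prevented from growing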
Description: SANGER: Inhibition of human LB2241-RCC cell growth in a cell viability assay.

[2] = system: 8505C; format: functional, cell-based, Homo sapiens; conditions: Homo sapiens, 8505C
Description: SANGER: Inhibition of human 8505C cell growth in a cell viability assay.

[3] = system: PC-14; format: functional, cell-based, Homo sapiens; conditions: Homo sapiens, PC-14;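 further: cell viability assay measuring inhibition of PC-14 cell growth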
Description: SANGER: Inhibition of human PC-14 cell growth in a cell viability assay.

[4] = system: Ca-Ski; format: functional, cell-based; conditions: Homo sapiens;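 further: cell viability assay measuring inhibition of Ca-Ski cell growth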
Description: SANGER: Inhibition of human Ca-Ski cell growth in a cell viability assay.

[5] = system: NCI-H23; format: functional, cell-based, Homo sapiens; conditions: Homo sapiens, NCI-H23;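 further: cell viability assay measuring growth inhibition of NCI-H23 cells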
Description: SANGER: Inhibition of human NCI-H23 cell growth in a cell viability assay.

[6] = system: MZ1-PC; format: functional, cell-based, Homo sapiens; conditions: Homo sapiens, MZ1-PC;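 further: cell viability assay measuring growth inhibition of human MZ1-PC cells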
Description: SANGER: Inhibition of human MZ1-PC cell growth in a cell viability assay.

[7] = system: MLMA; format: functional, cell-based, Homo sapiens; conditions: Homo sapiens, MLMA;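 further: growth inhibition of MLMA cells (human), determined through a cell viability readout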
Description: SANGER: Inhibition of human MLMA cell growth in a cell viability assay.

[8] = system: NCI-H650; format: functional, cell-based, Homo sapiens; conditions: Homo sapiens, NCI-H650;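 further: growth inhibition of NCI-H650 cells, read out by a viability assay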
Description: SANGER: Inhibition of human NCI-H650 cell growth in a cell viability assay.

[9] = system: LN-405; format: functional, cell-based, Homo sapiens; conditions: Homo sapiens, LN-405
Description: SANGER: Inhibition of human LN-405 cell growth in a cell viability assay.

[10] = system: SNU-C2B; format: functional, cell-based, Homo sapiens; conditions: Homo sapiens, SNU-C2B;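 further: cell viability readout used to measure compound-driven suppression of SNU-C2B cell proliferation, IC50 marking half-maximal growth inhibition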
Description: SANGER: Inhibition of human SNU-C2B cell growth in a cell viability assay.

[11] = system: TGW; format: functional, cell-based; conditions: Homo sapiens;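 further: growth inhibition of human TGW cells, read out with a cell viability assay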
Description: SANGER: Inhibition of human TGW cell growth in a cell viability assay.

[12] = system: K562; format: functional, cell-based; conditions: Homo sapiens
Description: SANGER: Inhibition of human K-562 cell growth in a cell viability assay.

[13] = system: SF-295; format: functional, cell-based, Homo sapiens; conditions: Homo sapiens, SF-295; read-out: IC50;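 further: growth inhibition of SF-295 cells, read out with a cell viability assay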
Description: SANGER: Inhibition of human SF295 cell growth in a cell viability assay.

[14] = system: KE-37; format: functional, cell-based; conditions: Homo sapiens;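 further: growth inhibition of KE-37 cells, read out with a cell viability assay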
Description: SANGER: Inhibition of human KE-37 cell growth in a cell viability assay.

[15] = system: MPP-89; format: functional, cell-based, Homo sapiens; conditions: Homo sapiens, MPP-89;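 further: growth inhibition of human MPP-89 cells, read out with a cell viability assay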
Description: SANGER: Inhibition of human MPP-89 cell growth in a cell viability assay.

[16] = system: SK-PN-DW; format: functional, cell-based; conditions: Homo sapiens;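 further: growth inhibition measured with a viability assay on these cells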
Description: SANGER: Inhibition of human SK-PN-DW cell growth in a cell viability assay.

[17] = system: TE-1; format: functional, cell-based, Homo sapiens; conditions: Homo sapiens, TE-1;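 further: growth inhibition of the human TE-1 cell line, read out with a cell viability assay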
Description: SANGER: Inhibition of human TE-1 cell growth in a cell viability assay.

[18] = system: T98G; format: functional, cell-based, Homo sapiens; conditions: Homo sapiens, T98G;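 further: growth inhibition of T98G cells, read out by a cell viability assay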
Description: SANGER: Inhibition of human T98G cell growth in a cell viability assay.

[19] = system: BHT-101; format: functional, cell-based, Homo sapiens; conditions: Homo sapiens, BHT-101
Description: SANGER: Inhibition of human BHT-101 cell growth in a cell viability assay.

[20] = system: 8305C; format: functional, cell-based, Homo sapiens; conditions: Homo sapiens, 8305C
Description: SANGER: Inhibition of human 8305C cell growth in a cell viability assay.

[21] = system: SW837; format: functional, cell-based, Homo sapiens; conditions: Homo sapiens, SW837;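 further: growth inhibition of SW837 cells, determined with a cell viability assay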
Description: SANGER: Inhibition of human SW837 cell growth in a cell viability assay.

[22] = system: GR-ST; format: functional, cell-based; conditions: Homo sapiens
Description: SANGER: Inhibition of human GR-ST cell growth in a cell viability assay.

[23] = system: TCC-SUP; format: functional, cell-based, Homo sapiens; conditions: Homo sapiens, TCC-SUP;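 further: growth inhibition of TCC-SUP cells, read out with a cell viability assay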
Description: SANGER: Inhibition of human TCCSUP cell growth in a cell viability assay.

[24] = system: CTV-1; format: functional, cell-based; conditions: Homo sapiens;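 further: growth inhibition of the cell line, read out with a cell viability assay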
Description: SANGER: Inhibition of human CTV-1 cell growth in a cell viability assay.

[25] = system: OE33; format: functional, cell-based, Homo sapiens; conditions: Homo sapiens, OE33;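 further: growth inhibition of human OE33 cells, measured by a cell viability assay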
Description: SANGER: Inhibition of human OE33 cell growth in a cell viability assay.

[26] = system: NH-12; format: functional, cell-based, Homo sapiens; conditions: Homo sapiens, NH-12;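 further: growth inhibition of NH-12 cells, read out with a cell viability assay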
Description: SANGER: Inhibition of human NH-12 cell growth in a cell viability assay.

[27] = system: NCI-H1792; format: functional, cell-based, Homo sapiens; conditions: Homo sapiens, NCI-H1792;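 further: growth inhibition of human NCI-H1792 cells, read out as cell viability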
Description: SANGER: Inhibition of human NCI-H1792 cell growth in a cell viability assay.

[28] = system: CAL-54; format: functional, cell-based, Homo sapiens; conditions: Homo sapiens, CAL-54;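 further: growth inhibition of CAL-54 cells, read out by a viability measurement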
Description: SANGER: Inhibition of human CAL-54 cell growth in a cell viability assay.

[29] = system: KARPAS-45; format: functional, cell-based; conditions: Homo sapiens;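 further: inhibition of cell line growth, read out through a viability assay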
Description: SANGER: Inhibition of human KARPAS-45 cell growth in a cell viability assay.

[30] = system: SW684; format: functional, cell-based, Homo sapiens; conditions: Homo sapiens, SW684;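 further: growth inhibition of human SW684 cells, measured by a cell viability assay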
Description: SANGER: Inhibition of human SW684 cell growth in a cell viability assay.

[31] = system: DBTRG-05MG; format: functional, cell-based, Homo sapiens; conditions: Homo sapiens, DBTRG-05MG;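 further: cell viability assay measuring growth inhibition of human DBTRG-05MG cells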
Description: SANGER: Inhibition of human DBTRG-05MG cell growth in a cell viability assay.

[32] = system: HTC-C3; format: functional, cell-based, Homo sapiens; conditions: Homo sapiens, HTC-C3;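 further: inhibition of cell growth, read out with a cell viability assay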
Description: SANGER: Inhibition of human HTC-C3 cell growth in a cell viability assay.

[33] = system: NCI-H2452; format: functional, cell-based, Homo sapiens; conditions: Homo sapiens, NCI-H2452;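 further: growth inhibition of NCI-H2452 cells, read out with a cell viability assay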
Description: SANGER: Inhibition of human NCI-H2452 cell growth in a cell viability assay.

[34] = system: 647-V; format: functional, cell-based, Homo sapiens; conditions: Homo sapiens, 647-V;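 further: growth inhibition of 647-V cells, read out with a cell viability assay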
Description: SANGER: Inhibition of human 647-V cell growth in a cell viability assay.

[35] = system: M059J; format: functional, cell-based, Homo sapiens; conditions: Homo sapiens, M059J;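 further: growth inhibition of M059J cells, read out with a cell viability assay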
Description: SANGER: Inhibition of human M059J cell growth in a cell viability assay.

[36] = system: NMC-G1; format: functional, cell-based, Homo sapiens; conditions: Homo sapiens, NMC-G1;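 further: growth inhibition of the NMC-G1 cell line, measured with a cell viability read-out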
Description: SANGER: Inhibition of human NMC-G1 cell growth in a cell viability assay.

[37] = system: MHH-NB-11; format: functional, cell-based, Homo sapiens; conditions: Homo sapiens, MHH-NB-11;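 further: growth inhibition of human MHH-NB-11 cells, read out by a cell viability assay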
Description: SANGER: Inhibition of human MHH-NB-11 cell growth in a cell viability assay.

[38] = system: SW13; format: functional, cell-based, Homo sapiens; conditions: Homo sapiens, SW13;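 further: IC50 is inhibition of SW13 cell growth, read out with a cell viability assay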
Description: SANGER: Inhibition of human SW13 cell growth in a cell viability assay.

[39] = system: HCE-4; format: functional, cell-based, Homo sapiens; conditions: Homo sapiens, HCE-4;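 further: cell viability assay measuring inhibition of growth in the human HCE-4 cell line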
Description: SANGER: Inhibition of human HCE-4 cell growth in a cell viability assay.

[40] = system: KU812 cell line; format: functional, cell-based; conditions: Homo sapiens;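 further: growth inhibition of KU812 cells, read out with a cell viability assay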
Description: SANGER: Inhibition of human KU812 cell growth in a cell viability assay.

[41] = system: CAL-39; format: functional, cell-based, Homo sapiens; conditions: Homo sapiens, CAL-39;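 further: cell viability assay measuring growth inhibition of CAL-39 cells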
Description: SANGER: Inhibition of human CAL-39 cell growth in a cell viability assay.

[42] = system: SK-LU-1; format: functional, cell-based, Homo sapiens; conditions: Homo sapiens, SK-LU-1;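 further: cell viability assay measuring growth inhibition of human SK-LU-1 cells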
Description: SANGER: Inhibition of human SK-LU-1 cell growth in a cell viability assay.

[43] = system: HT-29; format: functional, cell-based, Homo sapiens; conditions: Homo sapiens, HT-29;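 further: growth inhibition of human HT-29 cells, read out by a cell viability assay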
Description: SANGER: Inhibition of human HT-29 cell growth in a cell viability assay.

[44] = system: TK-10; format: functional, cell-based, Homo sapiens; conditions: Homo sapiens, TK-10;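 further: growth inhibition of TK-10 cells, read out in a cell viability assay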
Description: SANGER: Inhibition of human TK10 cell growth in a cell viability assay.

[45] = system: MC-IXC; format: functional, cell-based, Homo sapiens; conditions: Homo sapiens, MC-IXC;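 further: growth inhibition of MC-IXC cells, read out with a cell viability assay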
Description: SANGER: Inhibition of human MC-IXC cell growth in a cell viability assay.

[46] = system: DoTc2-4510; format: functional, cell-based, Homo sapiens; conditions: Homo sapiens, DoTc2-4510
[47] = system: Calu-3; format: functional, cell-based, Homo sapiens; conditions: Homo sapiens, Calu-3;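 further: growth inhibition of human Calu-3 cells, determined with a cell viability assay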
Description: SANGER: Inhibition of human Calu-3 cell growth in a cell viability assay.

[48] = system: A2058; format: functional, cell-based; conditions: Homo sapiens;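 further: reduction of A2058 cell growth, read out with a viability assay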
Description: SANGER: Inhibition of human A2058 cell growth in a cell viability assay.

[49] = system: A 172; format: functional, cell-based, Homo sapiens; conditions: Homo sapiens, A 172;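 further: growth inhibition of A172 cells, measured with a cell viability readout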
Description: SANGER: Inhibition of human A172 cell growth in a cell viability assay.

[50] = system: COLO-829; format: functional, cell-based, Homo sapiens; conditions: Homo sapiens, COLO-829
Description: SANGER: Inhibition of human COLO-829 cell growth in a cell viability assay.

[51] = system: SN12C; format: functional, cell-based, Homo sapiens; conditions: Homo sapiens, SN12C;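 further: growth inhibition of human SN12C cells, measured by a cell viability assay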
Description: SANGER: Inhibition of human SN12C cell growth in a cell viability assay.

In the case of `C=CCNC1=C2C[C@@H](C)C[C@H](OC)[C@H](O)[C@@H](C)/C=C(\C)[C@H](OC(N)=O)[C@@H](OC)/C=C\C=C(/C)C(=O)NC(=CC1=O)C2=O` [TANESPIMYCIN], the IC50 [1] is reported as 0.101 µM, the IC50 [2] is reported as 1 µM and the IC50 [3] is reported as 0.132 µM. The IC50 [4] was 0.267 µM, the IC50 [5] was 0.0266 µM and the IC50 [6] was > 1 µM. For the same compound, the IC50 [7] was > 1 µM, the IC50 [8] was 0.177 µM and the IC50 [9] was 0.417 µM. The IC50 [10] was 0.58 µM, the IC50 [11] was > 1 µM and the IC50 [12] was > 1 µM. For the same compound, the IC50 [13] was 0.0645 µM, the IC50 [14] was > 1 µM and the IC50 [15] was 0.141 µM. The IC50 [16] was > 1 µM, the IC50 [17] was 0.092 µM and the IC50 [18] was 0.041 µM. The IC50 [19] was > 1 µM, the IC50 [20] was 0.725 µM and the IC50 [21] was > 1 µM. The IC50 [22] was > 1 µM, the IC50 [23] was 0.0596 µM and the IC50 [24] was 0.527 µM. For the same compound, the IC50 [25] was 0.851 µM, the IC50 [26] was > 1 µM and the IC50 [27] was 0.0962 µM. For the same compound, the IC50 [28] was > 1 µM, the IC50 [29] was 0.379 µM and the IC50 [30] was 0.0659 µM. For the same compound, the IC50 [31] was 0.581 µM, the IC50 [32] was 0.265 µM and the IC50 [33] was 0.14 µM. For the same compound, the IC50 [34] was > 1 µM, the IC50 [35] was 0.0903 µM and the IC50 [36] was 0.293 µM. For the same compound, the IC50 [37] was > 1 µM, the IC50 [38] was > 1 µM and the IC50 [39] was 0.474 µM. The IC50 [40] was 0.34 µM, the IC50 [41] was 0.0777 µM and the IC50 [42] was 0.0308 µM. The IC50 [43] was 0.0692 µM, the IC50 [44] was 0.231 µM and the IC50 [45] was > 1 µM. The IC50 [46] was 0.208 µM, the IC50 [47] was > 1 µM and the IC50 [48] was 0.0723 µM. It also gave an IC50 [49] of 0.21 µM, an IC50 [50] of 0.12 µM and an IC50 [51] of 0.101 µM.
In the case of `O=C1N=C(NCc2cccs2)S/C1=C\c1ccc2ncccc2c1`, the IC50 [1] is reported as > 5 µM, the IC50 [2] is reported as > 5 µM and the IC50 [3] is reported as > 5 µM. For the same compound, the IC50 [4] was > 5 µM, the IC50 [5] was > 5 µM and the IC50 [6] was > 5 µM. The IC50 [7] was > 5 µM, the IC50 [8] was > 5 µM and the IC50 [9] was > 5 µM. The IC50 [10] was > 5 µM, the IC50 [11] was > 5 µM and the IC50 [12] was > 5 µM. For the same compound, the IC50 [13] was > 5 µM, the IC50 [14] was > 5 µM and the IC50 [15] was > 5 µM. For the same compound, the IC50 [16] was > 5 µM, the IC50 [17] was > 5 µM and the IC50 [18] was 1.37 µM. For the same compound, the IC50 [19] was > 5 µM, the IC50 [20] was > 5 µM and the IC50 [21] was > 5 µM. For the same compound, the IC50 [22] was > 5 µM, the IC50 [23] was > 5 µM and the IC50 [24] was > 5 µM. The IC50 [25] was > 5 µM, the IC50 [26] was > 5 µM and the IC50 [27] was > 5 µM. For the same compound, the IC50 [28] was > 5 µM, the IC50 [29] was > 5 µM and the IC50 [30] was > 5 µM. For the same compound, the IC50 [31] was > 5 µM, the IC50 [32] was > 5 µM and the IC50 [33] was > 5 µM. For the same compound, the IC50 [34] was > 5 µM, the IC50 [35] was > 5 µM and the IC50 [36] was > 5 µM. For the same compound, the IC50 [37] was > 5 µM, the IC50 [38] was > 5 µM and the IC50 [39] was > 5 µM. For the same compound, the IC50 [40] was > 5 µM, the IC50 [41] was > 5 µM and the IC50 [42] was > 5 µM. For the same compound, the IC50 [43] was > 5 µM, the IC50 [44] was > 5 µM and the IC50 [45] was > 5 µM. For the same compound, the IC50 [46] was > 5 µM, the IC50 [47] was > 5 µM and the IC50 [48] was > 5 µM. The IC50 [49] was > 5 µM, the IC50 [50] was > 5 µM and the IC50 [51] was > 5 µM.
For `CC(=O)O[C@@H]1[C@@H](OC(C)=O)[C@@H](O)[C@H](Oc2c(-c3ccc(O)cc3)oc3cc(O)cc(O)c3c2=O)O[C@H]1C`, the IC50 [1] was > 10 µM, the IC50 [2] was > 10 µM and the IC50 [3] was > 10 µM. For the same compound, the IC50 [4] was > 10 µM, the IC50 [5] was > 10 µM and the IC50 [6] was > 10 µM. For the same compound, the IC50 [7] was > 10 µM, the IC50 [8] was > 10 µM and the IC50 [9] was > 10 µM. For the same compound, the IC50 [10] was > 10 µM, the IC50 [11] was > 10 µM and the IC50 [12] was > 10 µM. The IC50 [13] was > 10 µM, the IC50 [14] was > 10 µM and the IC50 [15] was > 10 µM. The IC50 [16] was > 10 µM, the IC50 [17] was > 10 µM and the IC50 [18] was > 10 µM. For the same compound, the IC50 [19] was > 10 µM, the IC50 [20] was > 10 µM and the IC50 [21] was > 10 µM. The IC50 [22] was > 10 µM, the IC50 [23] was > 10 µM and the IC50 [24] was > 10 µM. For the same compound, the IC50 [25] was > 10 µM, the IC50 [26] was > 10 µM and the IC50 [27] was > 10 µM. For the same compound, the IC50 [28] was > 10 µM, the IC50 [29] was > 10 µM and the IC50 [30] was > 10 µM. The IC50 [31] was > 10 µM, the IC50 [32] was > 10 µM and the IC50 [33] was > 10 µM. For the same compound, the IC50 [34] was > 10 µM, the IC50 [35] was > 10 µM and the IC50 [36] was > 10 µM. For the same compound, the IC50 [37] was > 10 µM, the IC50 [38] was > 10 µM and the IC50 [39] was > 10 µM. The IC50 [40] was > 10 µM, the IC50 [41] was > 10 µM and the IC50 [42] was > 10 µM. The IC50 [43] was > 10 µM, the IC50 [44] was > 10 µM and the IC50 [45] was > 10 µM. For the same compound, the IC50 [46] was > 10 µM, the IC50 [47] was > 10 µM and the IC50 [48] was > 10 µM. For the same compound, the IC50 [49] was 4.77 µM, the IC50 [50] was > 10 µM and the IC50 [51] was > 10 µM.
